Results taken from patent US20260315436A1, “METHOD OF TREATING DISORDERS WITH SURF1 MALFUNCTION” (Cure Mito Foundation, priority 2023, published 2026).

Legend:
[1] = tested on: GM28012 SURF1 fibroblasts; test: Seahorse mitochondrial stress test, fibroblast cell line GM28012 (Experiment 3, single compounds); format: cell-based, human; details: 48 h; for maximal respiration (maximal OCR) / respiration: glucose and galactose conditions; for total ATP: highest concentration (10 uM)
Protocol: (§1) In order to evaluate selected compounds' impact on mitochondrial function in patient-derived fibroblasts compared to controls, three seahorse assays were conducted, Exp. 1: Fibroblast cell line GM28010—single compounds; Exp. 2. Fibroblast cell line GM28010—combination of compounds+ Single compounds; and Exp. 3: Fibroblast cell line GM28012—single compounds. Seahorse XF24 Extracellular Flux Analyzers continuously measure oxygen concentration and proton flux in the cell supernatant over time (Wu et al., 2007). The oxygen concentration and proton flux measurements are converted in OCR and ECAR values. This enables a direct quantification of mitochondrial respiration and glycolysis. The aim of the seahorse assays is to evaluate the impact of selected compounds on mitochondrial function in patient-derived fibroblasts compared to controls. Compounds used in the seahorse assays include posacanazole, sertaconazole, glabridin, zinglibroside (ginsenoside Z R1), AM281, cysteamine bitrartate, PF-06447475, losmapimod, telepravir, miltefosine, incyclinide, poziotinib, and methylene blue.
(§2) • Basal Oxygen Consumption (OCR): This reflects the cellular oxygen usage under basal conditions, encompassing both energy production (ATP turnover) and background oxygen leak from the mitochondria. • Oligomycin Injection: Oligomycin is a compound that inhibits ATP synthase, an enzyme crucial for ATP production within mitochondria. • Oligomycin-resistant Respiration: After oligomycin injection, minimal oxygen consumption persists, representing non-ATP linked oxygen leak from the mitochondria, often termed proton leak. • ATP-linked Respiration: This value is derived by subtracting the oligomycin-resistant respiration from the basal OCR. It signifies the oxygen consumption specifically linked to ATP production through mitochondrial oxidative phosphorylation. • Mitochondrial Bioenergetic Efficiency: This parameter reflects the percentage decrease in oxygen consumption observed after oligomycin injection, indicating the mitochondria's efficiency in utilizing oxygen for ATP generation. • FCCP Injection: FCCP is a chemical that disrupts the link between mitochondrial electron transport and ATP production. • Maximal Respiration: Following FCCP injection, the highest oxygen consumption rate is measured, representing the maximum capacity of the mitochondria to utilize oxygen for respiration. • Spare Respiratory Capacity: This parameter is calculated by subtracting basal respiration from maximal respiration.
GM28010 primary human fibroblasts obtained from patients with SURF1 Leigh syndrome were purchased from the Coriell Cell Repositories (Camden, N.J.; repository number GM28010).
GM00038 primary human fibroblasts purchased from the Coriell Cell Repositories (Camden, N.J., repository number GM00038) and were used as a healthy control.
Fibroblasts were grown in glucose according to recommendation. Cells were plated in XF96 plates in culture medium and plated at 10,000 cells/well. The day after plating, the cells were treated with the compounds. The treatments completed in glucose medium and galactose medium. The compounds were tested at for 48 hours. The compounds were incubated at (37 C, 5% CO2) until the day of the experiment. The fibroblasts were run at passage numbers: GM28012 SURF1 Fibroblasts P5.
The assay medium was 10 mM glucose or galactose DMEM supplemented with 2 mM glutamine and 1 mM pyruvate. Injection Ports for basal glucose: Port A: 2 μM oligomycin; Port B: 2.5 μM FCCP; Port C: 4 μM FCCP; and Port D: 2 μM rotenone and antimycin A.
The data were normalized to cell number per well after the run. The Hoechst-stained nuclei were counted with a Operetta High-Content Imager.

[2] = tested on: GM28010 SURF1 mutant fibroblasts; test: Seahorse mitochondrial stress test, fibroblast cell line GM28010 (Experiment 1, single compounds); format: cell-based, human; details: 48 h
Protocol: as §1
Fibroblast cell line GM28010 is a primary human fibroblast cell line obtained from patients with SURF1 Leigh syndrome. It was purchased from the Coriell Cell Repositories (Camden, NJ, repository number GM28010). Cell line GM00038 was used as a healthy control for GM28010 and is a primary human fibroblast purchased from the Coriell Cell Repositories (Camden, NJ, repository number GM00038).
Fibroblasts were grown in glucose according to recommendation.
Cells were plated in XF96 plates in culture medium and were plated at 10,000 cells/well.
The day after plating, cells were treated with the compounds in Table 1. The treatments were completed in glucose medium and galactose medium. The compounds were tested at for 48 hours. The compounds were incubated at (37 C, 5% CO2) until the day of the experiment.
*Fibroblasts were run at passage numbers: GM28010 SURF1 Fibroblasts P5; GM00038F controls P9.
• Assay Medium: 10 mM glucose or galactose DMEM supplemented with 2 mM glutamine and 1 mM pyruvate. • Injection Ports for basal glucose: Port A: 2 μM oligomycin; Port B: 2.5 μM FCCP; Port C: 4 μM FCCP; and Port D: 2 μM rotenone and antimycin A.
Data were normalized to cell number per well after the run. The Hoechst-stained nuclei were counted with the Operetta High-Content Imager.
as §2

[3] = glucose and galactose conditions
[4] = 10 μM, listed as Ginsenoside Z R1 (Zinglibroside)

## Cc1c(C(=O)NN2CCOCC2)nn(-c2ccc(Cl)cc2Cl)c1-c1ccc(I)cc1 [AM281]
[1]
  ATP production rates: increased ATP production rates
  maximal respiration (maximal OCR): dose-dependent decreased maximal respiration
[1]; 1 μM and 5 μM
  ATP via glycolysis: OCR. ↑ATP via glycolysis @
[2]; 5 and 10 μM
  ATP production through glycolysis: increase in ATP production primarily through glycolysis
[2]; [3]
  respiration: did not result in major changes

## CC1(C)CC[C@]2(C(=O)O)CC[C@]3(C)C(=CC[C@@H]4[C@@]5(C)CC[C@H](O[C@@H]6O[C@H](C(=O)O)[C@@H](O)[C@H](O)[C@H]6O[C@@H]6O[C@H](CO)[C@@H](O)[C@H](O)[C@H]6O)C(C)(C)[C@@H]5CC[C@]43C)[C@@H]2C1 [Ginsenoside Z R1]
[1]
  ATP production through OXPHOS: increase in ATP production
  ATP production through glycolysis: increase in ATP production
  maximal respiration (maximal OCR): did not result in changes
[1]; 1 μM
  ATP production through OXPHOS: increased ATP production through OXPHOS
  total ATP production rate: increased ATP production through OXPHOS and total ATP production rate
[2]; [4]
  ATP production through OXPHOS: increase in ATP production
  ATP production through glycolysis: increase in ATP production
[2]; 10 μM, listed as Zinglibroside
  ATP production through OXPHOS: both conditions: ↑ATP via
  ATP production through glycolysis: both conditions: ↑ATP via
[2]; 10 μM, listed as zinglibroside
  ATP production through OXPHOS: increase in ATP production
  ATP production through glycolysis: increase in ATP production
[2]; [3]
  maximal respiration: did not result in changes

## C=CC(=O)N1CCC(Oc2cc3c(Nc4ccc(Cl)c(Cl)c4F)ncnc3cc2OC)CC1 [Poziotinib, poziotinib]
[2]; glucose and galactose conditions, listed as poziotinib
  respiration: did not result in major changes
[2]; glucose-cultured cells
  glycolysis: dose-dependent decrease
  maximal respiration: dose-dependent decrease
  toxicity: some toxicity
[2]; listed as poziotinib
  ATP production through glycolysis: decrease ATP production through glycolysis

## CCCCCCCCCCCCCCCCOP(=O)([O-])OCC[N+](C)(C)C [Miltefosine, miltefosine]
[1]
  ATP production through glycolysis: both conditions; ↑ in ATP
[1]; listed as miltefosine
  respiration: did not result in major changes
  ATP production through glycolysis: increase in ATP production through glycolysis
[2]; glucose and galactose conditions, listed as miltefosine
  respiration: did not result in major changes

## CC[C@@H]([C@H](C)O)n1ncn(-c2ccc(N3CCN(c4ccc(OC[C@@H]5CO[C@@](Cn6cncn6)(c6ccc(F)cc6F)C5)cc4)CC3)cc2)c1=O [Posaconazole, posaconazole]
[1]
  total ATP production rate: compensation with increased glycolysis
  respiration: decreased respiration
  total ATP: total ATP drops
[1]; listed as Posacanazole
  respiration: ↓ respiration, total ATP rate
  total ATP: (10 uM) where ATP drops
  total ATP production rate: compensated by glycolysis
[2]; all concentrations
  toxicity: toxic at all conc
[2]; [3]
  respiration: did not result in major changes
[2]; glucose and galactose conditions, listed as Posacanazole
  respiration: ↓ respiration
[2]; higher concentrations
  respiration: decreased respiration
